Measurements reported in patent US4258058A, “Phenoxyalkylcarboxylic acid compounds and thrombocyte-aggregation inhibition” (Boehringer Mannheim GmbH, priority 1978, dated 1981).

Tested on: thrombocyte aggregation
Assay: Born test: inhibition of the second phase of adrenalin induced thrombocyte aggregation in platelet-rich plasma (PRP)
Type: cell-based, human
Settings: Homo sapiens, at 5 × 10^-5 m, induced by 5×10^-6 m adrenalin, read-out: Percent Inhibition Of Thrombocyte Aggregation
Text: In a series of determinations utilizing the Born test, venous blood from metabolically healthy persons was mixed with sodium citrate in a ratio of 9:1 and the erythrocytes precipitated by centrifuging at 150 g. The filtrate is enriched in thrombocytes and this filtrate is designated as platelet-rich plasma (PRP). One aliquot of the PRP is placed in the cuvette of an aggregometer (Universal Aggregometer, manufactured by Braun Melsungen, West Germany) and stirred with a magnetic stirrer. The substance to be tested is added in the form of an aqueous solution at a pH of about 7. Changes in the light transmission of the suspension are continuously recorded. After spontaneous aggregation ceases, further aggregation is induced by the addition of 5×10^-6 m adrenalin, forming larger thrombocyte aggregates and increasing the light transmission through the suspension.
The adrenalin induced aggregation takes place in two phases, i.e., the light transmission initially increases, then stagnates temporarily, and then increases again. Only the second phase of the aggregation can be influenced by aggregation inhibitors. For an evaluation of the results there is first established, in a control experiment using no test compound, the angle of the second aggregation phase against the horizontal for adrenalin induced aggregation and this is designated as 0% inhibition. Utilizing the same PRP, the test compound is added and aggregation is induced with adrenalin, and the course of aggregation continuously recorded. The angle of the second aggregation phase against the horizontal is again determined and the relationship of this angle against the angle determined in the control experiment yields the percent inhibition of the second phase of the thrombocyte aggregation.
The standard material "Colfarit" (acetylsalicylic acid) yields 100% inhibition at a concentration of 10^-4 m and 0% inhibition at a concentration of 5×10^-5 m. At the latter concentration the inventive compounds yielded the following results: […]

Compound | inhibition at 50 µM
CC(C)(Oc1ccc(CCNS(=O)(=O)c2ccc(Cl)cc2)cc1)C(=O)O [2-{4-[2-(4-Chlorobenzenesulphonylamino)-ethyl]-phenoxy}-2-methylpropionic acid] | 100%
CC(C)(Oc1ccc(CCNS(=O)(=O)c2ccccc2)cc1)C(=O)O [2-{4-[2-(Benzenesulphonylamino)-ethyl]-phenoxy}-2-methylpropionic acid] | 20%
O=C(O)COc1ccc(CNS(=O)(=O)c2ccccc2)cc1 [4-(Benzenesulphonylaminomethyl)-phenoxyacetic acid] | 20%
O=C(O)COc1ccc(CCNS(=O)(=O)c2cccc3ccccc23)cc1 [4-[2-(1-naphthalenesulphonylamino)-ethyl]-phenoxyacetic acid] | 100%
O=C(O)COc1ccc(CCNS(=O)(=O)c2ccc(F)cc2)cc1 [4-[2-(4-Fluorobenzenesulphonylamino)-ethyl]-phenoxyacetic acid] | 100%
CC(=O)c1ccc(S(=O)(=O)NCCc2ccc(OCC(=O)O)cc2)cc1 [4-[2-(4-acetylbenzenesulphonylamino)-ethyl]-phenoxyacetic acid] | 100%
O=C(O)COc1ccc(CCNS(=O)(=O)c2ccc(Cl)cc2)cc1 [4-[2-(4-chlorobenzenesulphonylamino)-ethyl]-phenoxyacetic acid] | 100%
CC(CO)NC(=O)COc1ccc(CCNS(=O)(=O)c2ccccc2)cc1 (stereo not drawn) [4-[2-(Benzenesulphonylamino)-ethyl]-phenoxyacetic acid 1-hydroxy-2-propylamide] | 10%
CCOC(=O)CCNC(=O)COc1ccc(CCNS(=O)(=O)c2ccccc2)cc1 [4-[2-(Benzenesulphonylamino)-ethyl]-phenoxyacetic acid 2-ethoxycarbonylethylamide] | 100%
O=C(O)COc1ccc(CCNS(=O)(=O)c2ccccc2)cc1 [4-[2-(Benzenesulphonylamino)-ethyl]-phenoxyacetic acid] | 100%
Cc1ccc(S(=O)(=O)NCCc2ccc(OCC(=O)O)cc2)cc1 [4-[2-(p-toluenesulphonylamino)-ethyl]-phenoxyacetic acid] | 100%
O=C(O)COc1ccc(CCCNS(=O)(=O)c2ccccc2)cc1 [4-[3-(Benzenesulphonylamino)-propyl]-phenoxyacetic acid] | 100%
CC(=O)Oc1ccccc1C(=O)O [Colfarit, acetylsalicylic acid, reference compound] | 0%
CC(C)OC(=O)COc1ccc(CCNS(=O)(=O)c2ccccc2)cc1 [Isopropyl 4-[2-(benzenesulphonylamino)-ethyl]-phenoxyacetate] | 100%

Same assay, conditions: at 10^-4 m, induced by adrenalin

Compound | inhibition of thrombocyte aggregation
CC(=O)Oc1ccccc1C(=O)O [Colfarit, acetylsalicylic acid, reference compound] | 100%
